Values after ≈ are worked out from the molar mass of the structure shown.
Tests used:
Assay type in all cases: functional
Streptococcus pneumoniae [1] = test: Antibacterial activity against penicillin-, quinolone-resistant and macrolide-susceptible Streptococcus pneumoniae HMC 1058 harboring S79F, K137N mutation in quinolone-resistant determining regions of ParC gene and 460V mutation in QRDR of ParE gene by broth microdilution method
Streptococcus pneumoniae [2] = test: Antibacterial activity against penicillin-resistant and quinolone-susceptible Streptococcus pneumoniae HMC 228 expressing ermB by broth microdilution method
Streptococcus pneumoniae [3] = test: Antibacterial activity against penicillin-resistant and quinolone-susceptible Streptococcus pneumoniae HMC 3583 expressing mefA by broth microdilution method
Streptococcus pneumoniae [4] = test: Antibacterial activity against penicillin-, quinolone-resistant Streptococcus pneumoniae HMC 1541 harboring mutation in L4 protein by broth microdilution method
Streptococcus pneumoniae [5] = test: Antibacterial activity against penicillin- and quinolone-susceptible Streptococcus pneumoniae HMC 5055 expressing mefA after 50 passages by broth microdilution method
Streptococcus pneumoniae [6] = test: Antibacterial activity against penicillin-, macrolide- and quinolone-susceptible Streptococcus pneumoniae HMC 63 after 50 passages by broth microdilution method
Streptococcus pneumoniae [7] = test: Antibacterial activity against quinolone-susceptible and penicillin-intermediate Streptococcus pneumoniae HMC 5048 expressing mefA after 50 passages by broth microdilution method
Streptococcus pneumoniae [8] = test: Antibacterial activity against macrolide-, quinolone-susceptible and penicillin-intermediate Streptococcus pneumoniae HMC 99 after 50 passages by broth microdilution method
Streptococcus pneumoniae [9] = test: Antibacterial activity against macrolide-, quinolone-susceptible and penicillin-intermediate Streptococcus pneumoniae HMC 100 after 50 passages by broth microdilution method
Streptococcus pneumoniae [10] = test: Antibacterial activity against penicillin-resistant and quinolone-susceptible Streptococcus pneumoniae HMC 3583 expressing mefA after 50 passages by broth microdilution method
Streptococcus pneumoniae [11] = test: (§1) Antibacterial activity against penicillin-, macrolide-susceptible and quinolone-resistant Streptococcus pneumoniae HMC 1074 harboring S81F mutation in quinolone-resistant determining regions of GyrA gene, S79F mutation in QRDR of ParC gene and I460V mutation in QRDR of ParE gene after 50 passages by broth microdilution method
Streptococcus pneumoniae [12] = test: (§2) Antibacterial activity against penicillin-, macrolide- and quinolone-susceptible Streptococcus pneumoniae HMC 63 harboring S81F mutation in quinolone-resistant determining regions of GyrA gene, D83Y mutation in QRDR of ParC gene and I460V mutation in QRDR of ParE gene after 34 passages with gemifloxacin measured after 10 daily antibiotic-free subculturing by multi-step resistance selection technique
Streptococcus pneumoniae [13] = test: (§3) Antibacterial activity against macrolide-, quinolone-susceptible and penicillin-intermediate Streptococcus pneumoniae HMC 99 harboring S81Y and S79Y mutation in quinolone-resistant determining regions of GyrA and ParC genes respectively after 41 passages with moxifloxacin measured after 10 daily antibiotic-free subculturing by multi-step resistance selection technique
Streptococcus pneumoniae [14] = test: as §3, with “100” for “99”, “42” for “41”, “levofloxacin” for “moxifloxacin”
Streptococcus pneumoniae [15] = test: as §3, with “100” for “99”, “S81Y” for “S81Y and S79Y”, “gene” for “and ParC genes respectively”, “22” for “41”
Streptococcus pneumoniae [16] = test: as §3, with “100” for “99”, “harboring” for “harboring S81Y and”, “of” for “of GyrA and”, “gene” for “genes respectively”, “34” for “41”, “gemifloxacin” for “moxifloxacin”
Streptococcus pneumoniae [17] = test: as §2, with “penicillin-resistant” for “penicillin-, macrolide-”, “228 expressing ermB and” for “63”, “D83N” for “D83Y”, “28” for “34”, “DC-159a” for “gemifloxacin”
Streptococcus pneumoniae [18] = test: as §2, with “penicillin-resistant” for “penicillin-, macrolide-”, “228 expressing ermB and” for “63”, “S79Y” for “D83Y”, “36” for “34”, “moxifloxacin” for “gemifloxacin”
Streptococcus pneumoniae [19] = test: as §2, with “penicillin-resistant” for “penicillin-, macrolide-”, “3583 expressing mefA and” for “63”, “D83N” for “D83Y”, “49” for “34”, “DC-159a” for “gemifloxacin”
Streptococcus pneumoniae [20] = test: (§4) Antibacterial activity against penicillin-resistant and quinolone-susceptible Streptococcus pneumoniae HMC 3583 expressing mefA and harboring S81F mutation in quinolone-resistant determining regions of GyrA gene and I460V, D435N mutation in QRDR of ParE gene after 46 passages with gatifloxacin measured after 10 daily antibiotic-free subculturing by multi-step resistance selection technique
Streptococcus pneumoniae [21] = test: as §4, with “I460V” for “S81F mutation in quinolone-resistant determining regions of GyrA gene and I460V, D435N”, “41” for “46”, “gemifloxacin” for “gatifloxacin”
Streptococcus pneumoniae [22] = test: Antibacterial activity against penicillin-susceptible Streptococcus pneumoniae ATCC 49619 by agar dilution method
Streptococcus pneumoniae [23] = test: Antibacterial activity against penicillin-intermediate Streptococcus pneumoniae […] by agar dilution method
Streptococcus pneumoniae [24] = test: Antibacterial activity against penicillin-resistant Streptococcus pneumoniae […] by agar dilution method
Streptococcus pneumoniae [25] = test: Antibacterial activity against azithromycin-susceptible Streptococcus pneumoniae ATCC 49619 by agar dilution method
Streptococcus pneumoniae [26] = test: Antibacterial activity against azithromycin-resistant Streptococcus pneumoniae […] by agar dilution method
Streptococcus pneumoniae [27] = test: Antibacterial activity against quinolone-susceptible Streptococcus pneumoniae ATCC 49619 by agar dilution method
Streptococcus pneumoniae [28] = test: Antibacterial activity against quinolone-resistant Streptococcus pneumoniae […] by agar dilution method
Streptococcus pneumoniae [29] = test: Antibacterial activity against penicillin-susceptible, quinolone-resistant Streptococcus pneumoniae 1072 expressing ermB and harboring S81F mutation in quinolone-resistant determining regions of GyrA gene, S79Y mutation in QRDR of ParC gene and I460V mutation in QRDR of ParE gene by broth microdilution method
Streptococcus pneumoniae [30] = test: Antibacterial activity against penicillin-, macrolide- and quinolone-susceptible Streptococcus pneumoniae HMC 63 by broth microdilution method
Streptococcus pneumoniae [31] = test: as §1, with “gene” for “gene after 50 passages”
Streptococcus pneumoniae [32] = test: Antibacterial activity against penicillin- and quinolone-susceptible Streptococcus pneumoniae HMC 5055 expressing mefA by broth microdilution method
Streptococcus pneumoniae [33] = test: Antibacterial activity against macrolide-, quinolone-susceptible and penicillin-intermediate Streptococcus pneumoniae HMC 100 by broth microdilution method
Streptococcus pneumoniae [34] = test: Antibacterial activity against macrolide-, quinolone-susceptible and penicillin-intermediate Streptococcus pneumoniae HMC 99 by broth microdilution method
Streptococcus pneumoniae [35] = test: Antibacterial activity against quinolone-susceptible and penicillin-intermediate Streptococcus pneumoniae HMC 441 expressing ermB by broth microdilution method
Streptococcus pneumoniae [36] = test: Antibacterial activity against quinolone-susceptible and penicillin-intermediate Streptococcus pneumoniae HMC 5048 expressing mefA by broth microdilution method
Streptococcus pneumoniae [37] = test: as §2, with “macrolide-susceptible” for “macrolide-”, “quinolone-resistant” for “quinolone-susceptible”, “1074” for “63”, “S81F, E85K” for “S81F”, “S79F” for “D83Y”, “27” for “34”
Streptococcus pneumoniae [38] = test: as §4, with “228” for “3583”, “ermB” for “mefA”, “GyrA gene, S79Y mutation in QRDR of ParC” for “GyrA”, “I460V” for “I460V, D435N”, “38” for “46”
Streptococcus pneumoniae [39] = test: as §4, with “GyrA gene, D83N mutation in QRDR of ParC” for “GyrA”, “I460V” for “I460V, D435N”, “44” for “46”, “levofloxacin” for “gatifloxacin”

Question: Which MIC (Streptococcus pneumoniae [1]) does the source give for `CC[C@H]1OC(=O)[C@H](C)[C@@H](O[C@H]2C[C@@](C)(OC)[C@@H](O)[C@H](C)O2)[C@H](C)[C@@H](O[C@@H]2O[C@H](C)C[C@H](N(C)C)[C@H]2O)[C@](C)(O)C[C@@H](C)CN(C)[C@H](C)[C@@H](O)[C@]1(C)O` [AZITHROMYCIN] here?
Answer: 0.06 µg/mL (≈ 0.0801 µM)

Question: What about the MIC (Streptococcus pneumoniae [2]) of the same compound?
Answer: > 64 µg/mL

Question: And the MIC (Streptococcus pneumoniae [3])?
Answer: 2 µg/mL (≈ 2.67 µM)

Question: And the MIC (Streptococcus pneumoniae [4])?
Answer: > 64 µg/mL

Question: And the MIC (Streptococcus pneumoniae [5])?
Answer: 8 µg/mL (≈ 10.7 µM)

Question: What about the MIC (Streptococcus pneumoniae [6]) of the same compound?
Answer: 0.06 µg/mL (≈ 0.0801 µM)

Question: What about the MIC (Streptococcus pneumoniae [7]) of the same compound?
Answer: 8 µg/mL (≈ 10.7 µM)

Question: What about the MIC (Streptococcus pneumoniae [8]) of the same compound?
Answer: 0.06 µg/mL (≈ 0.0801 µM)

Question: And the MIC (Streptococcus pneumoniae [9])?
Answer: 0.03 µg/mL (≈ 0.0401 µM)

Question: And the MIC (Streptococcus pneumoniae [10])?
Answer: 4 µg/mL (≈ 5.34 µM)

Question: What about the MIC (Streptococcus pneumoniae [11]) of the same compound?
Answer: 0.03 µg/mL (≈ 0.0401 µM)

Question: And the MIC (Streptococcus pneumoniae [12])?
Answer: 0.03 µg/mL (≈ 0.0401 µM)

Question: And the MIC (Streptococcus pneumoniae [13])?
Answer: 0.016 µg/mL (≈ 0.0214 µM)

Question: And the MIC (Streptococcus pneumoniae [14])?
Answer: 0.03 µg/mL (≈ 0.0401 µM)

Question: And the MIC (Streptococcus pneumoniae [15])?
Answer: 0.03 µg/mL (≈ 0.0401 µM)

Question: And the MIC (Streptococcus pneumoniae [16])?
Answer: 0.06 µg/mL (≈ 0.0801 µM)

Question: What about the MIC (Streptococcus pneumoniae [17]) of the same compound?
Answer: > 64 µg/mL

Question: What about the MIC (Streptococcus pneumoniae [18]) of the same compound?
Answer: > 64 µg/mL

Question: And the MIC (Streptococcus pneumoniae [19])?
Answer: 0.25 µg/mL (≈ 0.334 µM)

Question: And the MIC (Streptococcus pneumoniae [20])?
Answer: 0.25 µg/mL (≈ 0.334 µM)

Question: What about the MIC (Streptococcus pneumoniae [21]) of the same compound?
Answer: 0.25 µg/mL (≈ 0.334 µM)

Question: And the MIC50 (Streptococcus pneumoniae [22])?
Answer: 0.12 µg/mL (≈ 0.16 µM)

Question: And the MIC90 (Streptococcus pneumoniae [22])?
Answer: > 64 µg/mL

Question: What about the MIC50 (Streptococcus pneumoniae [23]) of the same compound?
Answer: 0.12 µg/mL (≈ 0.16 µM)

Question: What about the MIC90 (Streptococcus pneumoniae [23]) of the same compound?
Answer: > 64 µg/mL

Question: What about the MIC50 (Streptococcus pneumoniae [24]) of the same compound?
Answer: 2 µg/mL (≈ 2.67 µM)

Question: And the MIC50 (Streptococcus pneumoniae [25])?
Answer: 0.12 µg/mL (≈ 0.16 µM)

Question: What about the MIC90 (Streptococcus pneumoniae [25]) of the same compound?
Answer: 0.12 µg/mL (≈ 0.16 µM)

Question: And the MIC50 (Streptococcus pneumoniae [26])?
Answer: > 64 µg/mL

Question: And the MIC50 (Streptococcus pneumoniae [27])?
Answer: 1 µg/mL (≈ 1.34 µM)

Question: What about the MIC90 (Streptococcus pneumoniae [27]) of the same compound?
Answer: > 64 µg/mL

Question: What about the MIC50 (Streptococcus pneumoniae [28]) of the same compound?
Answer: 0.06 µg/mL (≈ 0.0801 µM)

Question: What about the MIC (Streptococcus pneumoniae [29]) of the same compound?
Answer: > 64 µg/mL

Question: What about the MIC (Streptococcus pneumoniae [30]) of the same compound?
Answer: 0.016 µg/mL (≈ 0.0214 µM)

Question: What about the MIC (Streptococcus pneumoniae [31]) of the same compound?
Answer: 0.03 µg/mL (≈ 0.0401 µM)

Question: What about the MIC (Streptococcus pneumoniae [32]) of the same compound?
Answer: 2 µg/mL (≈ 2.67 µM)

Question: And the MIC (Streptococcus pneumoniae [33])?
Answer: 0.03 µg/mL (≈ 0.0401 µM)

Question: What about the MIC (Streptococcus pneumoniae [34]) of the same compound?
Answer: 0.016 µg/mL (≈ 0.0214 µM)

Question: What about the MIC (Streptococcus pneumoniae [35]) of the same compound?
Answer: > 64 µg/mL

Question: And the MIC (Streptococcus pneumoniae [36])?
Answer: 4 µg/mL (≈ 5.34 µM)

Question: What about the MIC (Streptococcus pneumoniae [37]) of the same compound?
Answer: 0.016 µg/mL (≈ 0.0214 µM)

Question: What about the MIC (Streptococcus pneumoniae [38]) of the same compound?
Answer: 2 µg/mL (≈ 2.67 µM)

Question: And the MIC (Streptococcus pneumoniae [39])?
Answer: 2 µg/mL (≈ 2.67 µM)

Reference: ChEMBL document CHEMBL1151449, “In vitro activity of DC-159a, a new broad-spectrum fluoroquinolone, compared with that of other agents against drug-susceptible and -resistant pneumococci” (2008)
